Experimental data published in patent US20220031723A1, “POWDERED FOOD COMPOSITION COMPRISING ERIOCITRIN” (EUROMED, S.A., priority 2020, published 2022).

Key:
[1] = Occurrence of plasma and urine metabolites in volunteers after consuming lemon or orange extract; type: in vivo, human
Description: Through a targeted metabolomic strategy, a total of 17 metabolites were tentatively identified (Table 3). No hesperidin or eriocitrin-derived metabolites were detected in any volunteer at baseline. All the identified metabolites were detected at least in one volunteer, independently of the extract consumed, except for the metabolites M9 (eriodictyol sulfoglucuronide) and M11 (hesperetin sulfoglucuronide), which only were detected after consuming lemon and orange extract, respectively (Table 3). These representative EICs illustrate the metabolites identified in urine (F3 fraction) after consuming lemon (FIG. 3A) and orange (FIG. 3B) extracts, and plasma after consuming lemon (FIG. 3C) and orange (FIG. 3D) extracts. From the 17 metabolites, 16 were detected after consuming lemon extract (except M11), and 15 after consuming orange extract (except M9 and M10 in urine, and M9 and M12 in plasma) (Table 3).

[2] = Urinary excretion of quantified metabolites in collected fractions after extract intake; type: in vivo, human; conditions: mean ± SD; for Metabolite quantified in urine fraction F1: fraction 0 to 4 h; for Metabolite quantified in urine fraction F2: fraction 4 to 8 h; for Metabolite quantified in urine fraction F3: fraction 8 to 10 h; for Metabolite quantified in urine fraction F4: fraction collected at 24 h (10-24 h); for Metabolite quantified in urine, Total F (24 h): sum of fractions F1-F4
Method: Table 4 and Table 5 show the urinary excretion of quantified metabolites at the different fractions collected, i.e., 0-4 h (F1), 4-8 h (F2), 8-10 h (F3), and 10-24 h (F4), after extracts intake.

| Compound | Occurrence Plasma LE (number of volunteers in whom metabolite was detected) ([1]; human, in vivo) | Occurrence Plasma LE (second column so headed; number of volunteers in whom metabolite was detected) ([1]; human, in vivo) | Occurrence Urine LE (number of volunteers in whom metabolite was detected) ([1]; human, in vivo) | Occurrence Urine LE (second column so headed; number of volunteers in whom metabolite was detected) ([1]; human, in vivo) | Metabolite quantified in urine fraction F1 ([2]; after consuming lemon extract) [μg/mg creatinine] | Metabolite quantified in urine fraction F2 ([2]; after consuming lemon extract) [μg/mg creatinine] | Metabolite quantified in urine fraction F3 ([2]; after consuming lemon extract) [μg/mg creatinine] | Metabolite quantified in urine fraction F4 ([2]; after consuming lemon extract) [μg/mg creatinine] | Metabolite quantified in urine, Total F (24 h) ([2]; after consuming lemon extract) [μg/mg creatinine] | Metabolite quantified in urine fraction F1 ([2]; after consuming orange extract) [μg/mg creatinine] | Metabolite quantified in urine fraction F2 ([2]; after consuming orange extract) [μg/mg creatinine] | Metabolite quantified in urine fraction F3 ([2]; after consuming orange extract) [μg/mg creatinine] | Metabolite quantified in urine fraction F4 ([2]; after consuming orange extract) [μg/mg creatinine] | Metabolite quantified in urine, Total F (24 h) ([2]; after consuming orange extract) [μg/mg creatinine] | Occurrence Plasma LE (number of volunteers in whom metabolite was detected) ([1]; plasma, after consuming lemon extract (LE), n = 16 volunteers) | Occurrence Plasma LE (second column so headed; number of volunteers in whom metabolite was detected) ([1]; plasma, fourth occurrence column, probably orange extract (OE), n = 16 volunteers) | Occurrence Urine LE (number of volunteers in whom metabolite was detected) ([1]; urine, after consuming lemon extract (LE), n = 16 volunteers) | Occurrence Urine LE (second column so headed; number of volunteers in whom metabolite was detected) ([1]; urine, third occurrence column, probably orange extract (OE), n = 16 volunteers) |
| --- | --- | --- | --- | --- | --- | --- | --- | --- | --- | --- | --- | --- | --- | --- | --- | --- | --- | --- |
| O=C1C[C@@H](c2ccc(O)cc2)Oc2cc(O[C@@H]3O[C@H](C(=O)O)[C@@H](O)[C@H](O)[C@H]3O)cc(O)c21 [M3, Naringenin 7-O-glucuronide] | 16 | 14 | 16 | 16 | 1.0 ± 0.7 | 2.6 ± 4.0 | 1.7 ± 1.9 | 0.3 ± 0.3 | 5.7 ± 6.9 | 0.1 ± 0.1 | 0.2 ± 0.6 | 0.2 ± 0.2 | 0.2 ± 0.3 | 0.7 ± 1.5 | – | – | – | – |
| O=C1C[C@@H](c2ccc(O[C@@H]3O[C@H](C(=O)O)[C@@H](O)[C@H](O)[C@H]3O)cc2)Oc2cc(O)cc(O)c21 [M5, Naringenin 4'-O-glucuronide] | – | – | – | – | 0.8 ± 0.5 | 1.7 ± 2.7 | 1.3 ± 1.5 | 0.4 ± 0.3 | 4.2 ± 5.0 | 0.1 ± 0.1 | 0.3 ± 0.5 | 0.3 ± 0.4 | 0.3 ± 0.5 | 1.0 ± 1.5 | 16 | 14 | 16 | 16 |
| COc1ccc([C@@H]2CC(=O)c3c(O)cc(O[C@@H]4O[C@H](C(=O)O)[C@@H](O)[C@H](O)[C@H]4O)cc3O2)cc1O [M7, Hesperetin 7-O-glucuronide] | 16 | 16 | 16 | 16 | 1.2 ± 1.4 | 4.0 ± 4.7 | 2.7 ± 2.5 | 0.6 ± 0.6 | 8.5 ± 9.2 | 0.2 ± 0.6 | 2.1 ± 5.7 | 2.2 ± 3.6 | 1.1 ± 3.3 | 5.6 ± 13.2 | – | – | – | – |
| COc1ccc(C2CC(=O)c3c(O)cc(O)cc3O2)cc1O[C@@H]1O[C@H](C(=O)O)[C@@H](O)[C@H](O)[C@H]1O (stereo partly drawn) [M8, Hesperetin 3'-O-glucuronide] | 16 | 16 | 16 | 16 | 2.1 ± 2.3 | 10.7 ± 11.3 | 9.2 ± 7.7 | 2.2 ± 2.4 | 24.2 ± 23.7 | 0.5 ± 1.5 | 4.3 ± 11.5 | 3.3 ± 4.2 | 1.8 ± 1.6 | 9.9 ± 18.9 | – | – | – | – |
| Homoeriodictyol glucuronide [M6] | 16 | 3 | 16 | 3 | 13.9 ± 16.2 | 48.1 ± 90.0 | 37.2 ± 56.9 | 6.8 ± 8.0 | 106 ± 171 | – | – | – | – | – | – | – | – | – |

The remaining lines, values ahead:

| Occurrence Plasma LE (number of volunteers in whom metabolite was detected) ([1]; human, in vivo) | Occurrence Plasma LE (second column so headed; number of volunteers in whom metabolite was detected) ([1]; human, in vivo) | Occurrence Urine LE (number of volunteers in whom metabolite was detected) ([1]; human, in vivo) | Occurrence Urine LE (second column so headed; number of volunteers in whom metabolite was detected) ([1]; human, in vivo) | Metabolite quantified in urine fraction F1 ([2]; after consuming lemon extract) [μg/mg creatinine] | Metabolite quantified in urine fraction F2 ([2]; after consuming lemon extract) [μg/mg creatinine] | Metabolite quantified in urine fraction F3 ([2]; after consuming lemon extract) [μg/mg creatinine] | Metabolite quantified in urine fraction F4 ([2]; after consuming lemon extract) [μg/mg creatinine] | Metabolite quantified in urine, Total F (24 h) ([2]; after consuming lemon extract) [μg/mg creatinine] | Metabolite quantified in urine fraction F1 ([2]; after consuming orange extract) [μg/mg creatinine] | Metabolite quantified in urine fraction F2 ([2]; after consuming orange extract) [μg/mg creatinine] | Metabolite quantified in urine fraction F3 ([2]; after consuming orange extract) [μg/mg creatinine] | Metabolite quantified in urine fraction F4 ([2]; after consuming orange extract) [μg/mg creatinine] | Metabolite quantified in urine, Total F (24 h) ([2]; after consuming orange extract) [μg/mg creatinine] | Occurrence Plasma LE (number of volunteers in whom metabolite was detected) ([1]; plasma, after consuming lemon extract (LE), n = 16 volunteers) | Occurrence Plasma LE (second column so headed; number of volunteers in whom metabolite was detected) ([1]; plasma, fourth occurrence column, probably orange extract (OE), n = 16 volunteers) | Occurrence Urine LE (number of volunteers in whom metabolite was detected) ([1]; urine, after consuming lemon extract (LE), n = 16 volunteers) | Occurrence Urine LE (second column so headed; number of volunteers in whom metabolite was detected) ([1]; urine, third occurrence column, probably orange extract (OE), n = 16 volunteers) | Compound |
| --- | --- | --- | --- | --- | --- | --- | --- | --- | --- | --- | --- | --- | --- | --- | --- | --- | --- | --- |
| 16 | 0 | 14 | 4 | – | – | – | – | – | – | – | – | – | – | – | – | – | – | O=C1C[C@@H](c2ccc(O)c(O)c2)Oc2cc(O)cc(O)c21 [M12, Eriodictyol] |
| 16 | 16 | 16 | 16 | 1.9 ± 2.6 | 4.3 ± 4.5 | 3.3 ± 3.1 | 0.7 ± 0.6 | 9.0 ± 9.1 | 0.1 ± 0.3 | 1.2 ± 3.3 | 1.9 ± 3.1 | 0.6 ± 0.6 | 3.8 ± 7.3 | – | – | – | – | COc1ccc(C2CC(=O)c3c(O)cc(O)cc3O2)cc1OS(=O)(=O)O (stereo not drawn) [M14, Hesperetin 3'-O-sulfate] |
| 6 | 2 | 9 | 5 | – | – | – | – | – | – | – | – | – | – | – | – | – | – | O=C1C[C@@H](c2ccc(O)cc2)Oc2cc(O)cc(O)c21 [M15, Naringenin] |
| 15 | 1 | 12 | 1 | – | – | – | – | – | – | – | – | – | – | – | – | – | – | COc1cc([C@@H]2CC(=O)c3c(O)cc(O)cc3O2)ccc1O [M16, Homoeriodictyol] |
| 8 | 3 | 5 | 8 | – | – | – | – | – | – | – | – | – | – | – | – | – | – | COc1ccc([C@@H]2CC(=O)c3c(O)cc(O)cc3O2)cc1O [M17, Hesperetin] |
| 16 | 10 | 16 | 12 | 4.6 ± 5.0 | 14.6 ± 17.3 | 11.9 ± 12.6 | 1.5 ± 1.5 | 32.6 ± 36.5 | 0.02 ± 0.01 | 0.1 ± 0.1 | 0.2 ± 0.4 | 0.3 ± 0.4 | 0.6 ± 0.9 | – | – | – | – | Eriodictyol sulfate [M13] |
| 15 | 0 | 5 | 0 | – | – | – | – | – | – | – | – | – | – | – | – | – | – | Eriodictyol sulfoglucuronide [M9] |
| 0 | 8 | 0 | 7 | – | – | – | – | – | – | – | – | – | – | – | – | – | – | Hesperetin sulfoglucuronide [M11] |
